Measurements published in patent US6114517A, “Methods of modulating tumor necrosis factor α-induced expression of cell adhesion molecules” (Isis Pharmaceuticals Inc., priority 1998, dated 2000).

Columns and labels:
Format in all cases: cell-based, human
E-selectin = experiment: TNF-α-induced E-selectin cell surface expression in HMVEC, flow cytometry; details: Table 9, JNK antisense series
Protocol: (§1) Human dermal microvascular cells (HMVEC-d; Clonetics, San Diego, Calif.) were cultivated in endothelial basal media (EBM, Clonetics) supplemented with 10% fetal bovine serum (HyClone, Logan, Utah). Cells were grown in 100 mm petri dishes until 70-80% confluent, then washed with PBS and OPTI-MEM (Life Technologies, Inc., Gaithersburg, Md.). The cells were then incubated in the presence of OPTI-MEM and […] LIPOFECTIN (a 1:1 (w/w) liposome formulation of the cationic lipid N-[1-(2,3-dioleyloxy)propyl]-n,n,n-trimethylammonium chloride (DOTMA), and dioleoyl phosphotidylethanolamine (DOPE) in membrane filtered water (Life Technologies, Gaithersburg, Md.), per 100 nM of oligonucleotide followed by addition of oligonucleotide at the appropriate concentrations.
The effect of c-raf and Ha-ras antisense oligonucleotide treatment on the induction of E-selectin by TNF-α was examined. HMVEC cells were treated with either the c-raf or Ha-ras antisense compound under dose-response conditions or over time at a single dose level followed by stimulation of E-selectin expression by TNF-α for 5 hours. The cell surface expression of E-selectin was determined by flow cytometry analysis. Following oligonucleotide treatment, cells were detached from the plates and analyzed for surface expression of cell adhesion molecules using a Becton Dickinson (San Jose, Calif.) FACScan. TNF-α and FITC conjugated antibody for E-selectin were obtained from R & D Systems (Minneapolis, Minn.). PE-conjugated antibody for ICAM-1 was obtained from Pharmingen (San Diego, Calif.). VCAM-1 antibody was obtained from Santa Cruz Biotechnology, Santa Cruz, Calif. Cell surface expression was calculated using the mean value of fluorescence intensity using 3,000-5,000 cells stained with the appropriate antibody for each sample and time point. Results are expressed as percentage of control (cell surface expression induced by TNF-α in cells that were not treated with oligonucleotides) based upon mean fluorescence intensity.
The effects of c-raf, Ha-ras, and a E-selectin antisense oligonucleotide on TNF-α-induced E-selectin cell surface expression under kinetic conditions were examined. […] To test this, cells were treated, separately, with antisense oligonucleotides to E-selectin, ICAM-1 and VCAM-1 and allowed to recover prior to TNF-α treatment. […] E-selectin cell surface expression was measured by flow cytometry analysis after 5 hours of TNF-A treatment.

JNK1 mRNA = JNK1 mRNA expression by Northern blot; details: at the concentration tested, FIG. 4
Protocol: as §1
(§2) For determination of mRNA levels by Northern blot, total RNA was prepared from cells by the guanidinium isothiocyanate procedure or by the Qiagen RNAEASY method (Qiagen, Santa Clarita, Calif.) at the indicated times after initiation of oligonucleotide treatment. Northern blot analysis was performed as described in Current Protocols in Molecular Biology (Ausubel, F. M., et al., (eds), 1987, Greene Publishing Assoc. and Wiley Interscience, New York). […] RNA was quantified and normalized to G3PDH mRNA levels using a Molecular Dynamic PHOSPHORIMAGER (Sunnyvale, Calif.). […]

JNK2 mRNA = JNK2 mRNA expression by Northern blot; details: at the concentration tested, FIG. 4
Protocol: as §1, §2

JNK2 = experiment: TNF-α-mediated JNK2 kinase activity, isoform-specific JNK assay; details: FIG. 5
Protocol: To examine the effect of the c-raf antisense oligonucleotide (ISIS 12854, SEQ ID NO. 2) on ERK, JNK, and p38 MAPK activities stimulated by TNF-α, in vitro kinase assays were performed on extracts derived from cells treated with ISIS 12854 (SEQ ID NO. 2). Cells were treated with oligonucleotides and induced with cytokines. At the indicated time, cells were lysed on ice and debris was removed by centrifugation. Protein concentration was measured by Bradford assay. Lysate containing equal amounts of protein were incubated with primary antibody-agarose conjugates (ERK and p38 assay; Santa Cruz Biotechnology, Santa Cruz, Calif.), or with JNK1-specific or JNK2-specific antibodies (JNK assay; Upstate Biotechnology, Lake Placid, N.Y.), overnight at 4° C.
For isoform-specific JNK assays, anti-rabbit IgG conjugated with agarose beads was added to cell extracts following JNK antibody treatment and wash steps and incubated for 2 hours at 4° C. After washing with lysis buffer and kinase buffer, the pelleted beads were incubated with 1 μg of substrate (Elk-1 for ERK, ATF-2 for p38, and c-Jun for JNK MAPK) and 100 […] of ATP for 20 minutes at 37° C. MAPK and JNK assay kits, ATF-2 fusion protein, and antibodies for ATF-2, Elk-1 phospho-ATF-2 were purchased from New England BioLabs (Boston, Mass.). Reactions were terminated by the addition of 3×SDS sample buffer followed by boiling. […]

Substance: GoToCoCoGoGsGsCsCsAsGsGsCsCsAsAoAoGoToC [ISIS 15354]
- % Cell Surface Expression (E-selectin) (E-selectin; 20 nM): 32%
- % Cell Surface Inhibition (E-selectin) (E-selectin; 20 nM): 68%
- % Cell Surface Expression (E-selectin) (E-selectin; 50 nM): 29%
- % Cell Surface Inhibition (E-selectin) (E-selectin; 50 nM): 71%
- % Cell Surface Expression (E-selectin) (E-selectin; 100 nM): 33%
- % Cell Surface Inhibition (E-selectin) (E-selectin; 100 nM): 67%
- JNK1 mRNA expression (JNK1 mRNA): without affecting
- JNK2 mRNA expression (JNK2 mRNA): nearly complete inhibition
- TNF-α-mediated induction of JNK2 activity (JNK2): effectively reduced
